Test results: the kinase profiling compilation of Christmann-Franck et al. (2016)

Experiments:
Test in all cases: KINOMEscan competition binding
Details in all cases: compound 10.0 µM
SRC (human) = SRC (human) (UniProt P12931)
EPHA2 (human) = EPHA2 (human) (UniProt P29317)
MAP2K1 (human) = MAP2K1 (human) (UniProt Q02750)
AAK1 (human) = AAK1 (human) (UniProt Q2M2I8)
EPHA5 (human) = EPHA5 (human) (UniProt P54756)
ACVR1B (human) = ACVR1B (human) (UniProt P36896)
FLT4 (human) = FLT4 (human) (UniProt P35916)
ITK (human) = ITK (human) (UniProt Q08881)
CSNK1D (human) = CSNK1D (human) (UniProt P48730)
MINK1 (human) = MINK1 (human) (UniProt Q8N4C8)
MAPK10 (human) = MAPK10 (human) (UniProt P53779)
CDK19 (human) = CDK19 (human) (UniProt Q9BWU1)
CDK11B (human) = CDK11B (human) (UniProt P21127)
EIF2AK2 (human) = EIF2AK2 (human) (UniProt P19525)
FLT3 (human) = FLT3 (human) (UniProt P36888)
RIPK1 (human) = RIPK1 (human) (UniProt Q13546)
HCK (human) = HCK (human) (UniProt P08631)
SIK1 (human) = SIK1 (human) (UniProt P57059)
STK32C (human) = STK32C (human) (UniProt Q86UX6)
DCLK3 (human) = DCLK3 (human) (UniProt Q9C098)
NEK1 (human) = NEK1 (human) (UniProt Q96PY6)
MAP2K3 (human) = MAP2K3 (human) (UniProt P46734)
PRKD3 (human) = PRKD3 (human) (UniProt O94806)
MAPK13 (human) = MAPK13 (human) (UniProt O15264)
EPHA1 (human) = EPHA1 (human) (UniProt P21709)
CHEK1 (human) = CHEK1 (human) (UniProt O14757)
PRKAA2 (human) = PRKAA2 (human) (UniProt P54646)
CAMK2G (human) = CAMK2G (human) (UniProt Q13555)
[1] = tested on: ABL1 (human), P00519 [M351T]
DAPK1 (human) = DAPK1 (human) (UniProt P53355)
ADCK4 (human) = ADCK4 (human) (UniProt Q96D53)
BMPR2 (human) = BMPR2 (human) (UniProt Q13873)
STK3 (human) = STK3 (human) (UniProt Q13188)
MUSK (human) = MUSK (human) (UniProt O15146)
TEC (human) = TEC (human) (UniProt P42680)
MERTK (human) = MERTK (human) (UniProt Q12866)
YES1 (human) = YES1 (human) (UniProt P07947)
BMPR1B (human) = BMPR1B (human) (UniProt O00238)
PHKG2 (human) = PHKG2 (human) (UniProt P15735)
AKT3 (human) = AKT3 (human) (UniProt Q9Y243)

Chain of ITK (human) (Q08881 whole entry, looked up): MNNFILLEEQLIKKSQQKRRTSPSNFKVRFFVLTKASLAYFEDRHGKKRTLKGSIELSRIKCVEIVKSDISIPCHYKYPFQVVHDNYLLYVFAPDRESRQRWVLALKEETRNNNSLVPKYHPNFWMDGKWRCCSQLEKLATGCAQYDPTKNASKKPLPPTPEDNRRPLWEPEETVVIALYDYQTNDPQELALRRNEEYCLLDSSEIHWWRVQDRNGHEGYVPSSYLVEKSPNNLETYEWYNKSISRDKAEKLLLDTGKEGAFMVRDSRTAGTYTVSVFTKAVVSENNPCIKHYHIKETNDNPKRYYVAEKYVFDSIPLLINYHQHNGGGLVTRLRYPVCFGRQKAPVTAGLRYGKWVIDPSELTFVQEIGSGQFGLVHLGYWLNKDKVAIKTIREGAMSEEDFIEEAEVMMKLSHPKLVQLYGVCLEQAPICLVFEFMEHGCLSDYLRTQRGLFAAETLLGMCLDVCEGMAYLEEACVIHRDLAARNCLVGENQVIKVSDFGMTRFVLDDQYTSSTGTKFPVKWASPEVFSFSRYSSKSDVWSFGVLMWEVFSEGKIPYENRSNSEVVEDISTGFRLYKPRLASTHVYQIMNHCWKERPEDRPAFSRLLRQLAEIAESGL
Chain of BMPR1B (human) (O00238 whole entry, looked up): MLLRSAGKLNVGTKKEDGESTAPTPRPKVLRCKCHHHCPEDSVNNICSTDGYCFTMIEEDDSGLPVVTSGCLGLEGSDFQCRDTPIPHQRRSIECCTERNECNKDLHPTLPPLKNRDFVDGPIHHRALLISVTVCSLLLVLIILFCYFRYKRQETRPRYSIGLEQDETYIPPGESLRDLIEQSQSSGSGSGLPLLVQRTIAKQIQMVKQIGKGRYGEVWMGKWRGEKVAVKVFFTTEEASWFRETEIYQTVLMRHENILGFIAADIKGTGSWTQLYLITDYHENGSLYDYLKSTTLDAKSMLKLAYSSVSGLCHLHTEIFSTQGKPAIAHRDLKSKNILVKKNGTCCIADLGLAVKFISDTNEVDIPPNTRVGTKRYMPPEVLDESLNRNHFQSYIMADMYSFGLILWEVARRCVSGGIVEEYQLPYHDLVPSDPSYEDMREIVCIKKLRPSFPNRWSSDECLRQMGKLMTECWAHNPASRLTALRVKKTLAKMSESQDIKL
Chain of EPHA1 (human) (P21709 whole entry, looked up): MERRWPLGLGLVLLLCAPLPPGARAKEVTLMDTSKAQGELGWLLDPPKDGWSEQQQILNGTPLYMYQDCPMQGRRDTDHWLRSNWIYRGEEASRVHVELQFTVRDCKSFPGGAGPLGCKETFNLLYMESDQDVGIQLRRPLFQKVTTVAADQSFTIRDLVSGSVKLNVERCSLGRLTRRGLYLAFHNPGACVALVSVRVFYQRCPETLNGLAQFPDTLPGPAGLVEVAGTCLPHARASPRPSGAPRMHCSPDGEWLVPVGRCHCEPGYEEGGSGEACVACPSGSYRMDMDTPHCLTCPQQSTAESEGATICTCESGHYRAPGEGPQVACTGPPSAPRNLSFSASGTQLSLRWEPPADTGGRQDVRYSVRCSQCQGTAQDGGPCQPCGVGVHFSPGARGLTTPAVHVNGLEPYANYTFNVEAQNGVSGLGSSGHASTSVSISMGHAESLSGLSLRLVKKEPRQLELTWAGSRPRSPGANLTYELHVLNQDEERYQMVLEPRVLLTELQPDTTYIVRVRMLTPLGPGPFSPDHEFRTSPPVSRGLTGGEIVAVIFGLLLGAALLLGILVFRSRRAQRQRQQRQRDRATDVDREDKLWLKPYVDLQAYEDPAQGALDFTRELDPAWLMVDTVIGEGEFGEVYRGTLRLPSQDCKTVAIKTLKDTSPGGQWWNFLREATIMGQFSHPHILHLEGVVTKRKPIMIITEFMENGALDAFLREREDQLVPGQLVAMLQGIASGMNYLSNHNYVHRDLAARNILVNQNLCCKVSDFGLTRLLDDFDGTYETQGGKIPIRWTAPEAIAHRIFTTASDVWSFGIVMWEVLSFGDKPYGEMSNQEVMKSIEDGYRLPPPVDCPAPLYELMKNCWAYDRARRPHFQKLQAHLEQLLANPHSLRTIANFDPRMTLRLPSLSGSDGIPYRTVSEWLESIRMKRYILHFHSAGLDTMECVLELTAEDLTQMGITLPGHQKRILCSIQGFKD
Chain of STK32C (human) (Q86UX6 whole entry, looked up): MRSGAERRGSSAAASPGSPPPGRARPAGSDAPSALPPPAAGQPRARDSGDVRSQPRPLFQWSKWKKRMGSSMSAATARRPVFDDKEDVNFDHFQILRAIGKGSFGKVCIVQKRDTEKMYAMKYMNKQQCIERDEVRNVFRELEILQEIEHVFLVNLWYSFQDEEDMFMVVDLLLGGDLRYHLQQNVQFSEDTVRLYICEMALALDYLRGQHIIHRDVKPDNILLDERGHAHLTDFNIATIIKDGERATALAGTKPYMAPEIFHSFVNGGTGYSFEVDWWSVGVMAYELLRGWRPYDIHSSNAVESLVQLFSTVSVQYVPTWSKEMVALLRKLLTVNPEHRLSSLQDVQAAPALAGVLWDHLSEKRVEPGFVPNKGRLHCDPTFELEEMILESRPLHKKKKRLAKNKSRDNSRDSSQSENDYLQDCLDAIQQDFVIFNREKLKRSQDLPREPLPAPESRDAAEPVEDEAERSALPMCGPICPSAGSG
Chain of EIF2AK2 (human) (P19525 whole entry, looked up): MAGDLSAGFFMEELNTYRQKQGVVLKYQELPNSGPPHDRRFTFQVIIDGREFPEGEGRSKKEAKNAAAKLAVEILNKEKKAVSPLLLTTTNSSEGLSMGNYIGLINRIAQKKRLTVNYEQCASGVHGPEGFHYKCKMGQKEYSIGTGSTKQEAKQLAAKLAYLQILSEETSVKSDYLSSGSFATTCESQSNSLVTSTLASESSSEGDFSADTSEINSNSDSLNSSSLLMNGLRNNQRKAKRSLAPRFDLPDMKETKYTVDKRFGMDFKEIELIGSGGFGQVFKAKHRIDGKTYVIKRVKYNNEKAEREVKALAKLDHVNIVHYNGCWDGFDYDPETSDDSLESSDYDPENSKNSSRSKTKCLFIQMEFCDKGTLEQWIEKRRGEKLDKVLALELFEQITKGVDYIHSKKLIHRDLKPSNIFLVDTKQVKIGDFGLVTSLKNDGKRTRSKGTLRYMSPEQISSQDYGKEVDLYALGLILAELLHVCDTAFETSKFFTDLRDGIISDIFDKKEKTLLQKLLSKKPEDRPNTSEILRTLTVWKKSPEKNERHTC
Chain of NEK1 (human) (Q96PY6 whole entry, looked up): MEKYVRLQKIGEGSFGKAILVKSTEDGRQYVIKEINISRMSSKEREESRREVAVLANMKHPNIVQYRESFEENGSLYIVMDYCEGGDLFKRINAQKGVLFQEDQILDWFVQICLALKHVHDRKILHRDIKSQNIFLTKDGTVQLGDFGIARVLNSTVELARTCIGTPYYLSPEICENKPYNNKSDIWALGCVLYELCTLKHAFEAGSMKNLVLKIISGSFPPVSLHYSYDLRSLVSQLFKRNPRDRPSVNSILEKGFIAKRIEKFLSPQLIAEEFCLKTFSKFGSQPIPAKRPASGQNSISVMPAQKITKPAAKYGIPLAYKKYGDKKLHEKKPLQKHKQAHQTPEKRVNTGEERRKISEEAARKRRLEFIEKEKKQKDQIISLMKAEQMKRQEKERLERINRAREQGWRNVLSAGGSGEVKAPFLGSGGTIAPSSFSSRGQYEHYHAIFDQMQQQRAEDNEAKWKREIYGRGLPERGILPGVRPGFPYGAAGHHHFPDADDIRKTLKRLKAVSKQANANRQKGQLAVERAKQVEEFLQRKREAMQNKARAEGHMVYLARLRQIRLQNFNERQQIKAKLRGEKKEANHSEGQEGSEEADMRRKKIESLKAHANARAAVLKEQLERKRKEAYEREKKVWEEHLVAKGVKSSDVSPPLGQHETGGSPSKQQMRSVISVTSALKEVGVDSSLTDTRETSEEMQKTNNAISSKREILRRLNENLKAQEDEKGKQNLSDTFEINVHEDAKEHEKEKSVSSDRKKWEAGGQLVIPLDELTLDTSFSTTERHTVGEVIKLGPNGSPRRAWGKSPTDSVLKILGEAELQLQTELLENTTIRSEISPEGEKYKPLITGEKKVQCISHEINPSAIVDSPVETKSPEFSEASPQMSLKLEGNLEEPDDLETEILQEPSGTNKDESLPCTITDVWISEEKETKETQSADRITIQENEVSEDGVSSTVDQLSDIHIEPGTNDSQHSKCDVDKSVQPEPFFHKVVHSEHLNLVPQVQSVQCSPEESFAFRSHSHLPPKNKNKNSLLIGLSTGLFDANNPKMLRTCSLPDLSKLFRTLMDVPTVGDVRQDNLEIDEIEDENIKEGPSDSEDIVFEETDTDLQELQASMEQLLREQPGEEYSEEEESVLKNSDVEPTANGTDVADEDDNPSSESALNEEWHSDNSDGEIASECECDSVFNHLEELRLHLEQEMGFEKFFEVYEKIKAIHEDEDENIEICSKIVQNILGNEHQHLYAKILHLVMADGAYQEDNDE
Chain of MAPK13 (human) (O15264 whole entry, looked up): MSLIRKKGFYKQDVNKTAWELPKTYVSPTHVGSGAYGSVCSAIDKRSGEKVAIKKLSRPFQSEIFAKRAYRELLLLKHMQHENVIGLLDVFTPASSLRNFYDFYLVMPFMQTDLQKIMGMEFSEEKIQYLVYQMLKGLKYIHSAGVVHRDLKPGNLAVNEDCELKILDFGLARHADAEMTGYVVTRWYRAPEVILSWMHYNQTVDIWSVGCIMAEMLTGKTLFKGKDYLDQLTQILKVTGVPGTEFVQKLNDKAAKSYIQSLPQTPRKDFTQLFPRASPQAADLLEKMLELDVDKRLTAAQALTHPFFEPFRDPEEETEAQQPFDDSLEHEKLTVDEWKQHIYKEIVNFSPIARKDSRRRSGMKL

Cn1c(=O)n(-c2ccc(C(C)(C)C#N)cc2)c2c3cc(-c4cnc5ccccc5c4)ccc3ncc21
kinase still bound, per cent of control (SRC (human)): 100%
kinase still bound, per cent of control (EPHA2 (human)): 100%
kinase still bound, per cent of control (MAP2K1 (human)): 100%
kinase still bound, per cent of control (AAK1 (human)): 100%
kinase still bound, per cent of control (EPHA5 (human)): 100%
kinase still bound, per cent of control (ACVR1B (human)): 100%
kinase still bound, per cent of control (FLT4 (human)): 100%
kinase still bound, per cent of control (ITK (human)): 100%
kinase still bound, per cent of control (CSNK1D (human)): 100%
kinase still bound, per cent of control (MINK1 (human)): 100%
kinase still bound, per cent of control (MAPK10 (human)): 100%
kinase still bound, per cent of control (CDK19 (human)): 100%
kinase still bound, per cent of control (CDK11B (human)): 100%
kinase still bound, per cent of control (EIF2AK2 (human)): 100%
kinase still bound, per cent of control (FLT3 (human)): 100%
kinase still bound, per cent of control (RIPK1 (human)): 100%
kinase still bound, per cent of control (HCK (human)): 100%
kinase still bound, per cent of control (SIK1 (human)): 100%
kinase still bound, per cent of control (STK32C (human)): 100%
kinase still bound, per cent of control (DCLK3 (human)): 100%
kinase still bound, per cent of control (NEK1 (human)): 100%
kinase still bound, per cent of control (MAP2K3 (human)): 100%
kinase still bound, per cent of control (PRKD3 (human)): 100%
kinase still bound, per cent of control (MAPK13 (human)): 100%
kinase still bound, per cent of control (EPHA1 (human)): 100%
kinase still bound, per cent of control (CHEK1 (human)): 100%
kinase still bound, per cent of control (PRKAA2 (human)): 100%
kinase still bound, per cent of control (CAMK2G (human)): 100%
kinase still bound, per cent of control [1]: 100%
kinase still bound, per cent of control (DAPK1 (human)): 100%
kinase still bound, per cent of control (ADCK4 (human)): 100%
kinase still bound, per cent of control (BMPR2 (human)): 100%
kinase still bound, per cent of control (STK3 (human)): 100%
kinase still bound, per cent of control (MUSK (human)): 100%
kinase still bound, per cent of control (TEC (human)): 100%
kinase still bound, per cent of control (MERTK (human)): 100%
kinase still bound, per cent of control (YES1 (human)): 100%
kinase still bound, per cent of control (BMPR1B (human)): 100%
kinase still bound, per cent of control (PHKG2 (human)): 100%
kinase still bound, per cent of control (AKT3 (human)): 100%

C=CC(=O)Nc1cccc(Oc2nc(Nc3ccc(N4CCN(C)CC4)cc3OC)ncc2Cl)c1
kinase still bound, per cent of control (SRC (human)): 100%
kinase still bound, per cent of control (EPHA2 (human)): 100%
kinase still bound, per cent of control (MAP2K1 (human)): 100%
kinase still bound, per cent of control (AAK1 (human)): 7%
kinase still bound, per cent of control (EPHA5 (human)): 100%
kinase still bound, per cent of control (ACVR1B (human)): 100%
kinase still bound, per cent of control (FLT4 (human)): 100%
kinase still bound, per cent of control (ITK (human)): 0.55%
kinase still bound, per cent of control (CSNK1D (human)): 100%
kinase still bound, per cent of control (MINK1 (human)): 100%
kinase still bound, per cent of control (MAPK10 (human)): 13%
kinase still bound, per cent of control (CDK19 (human)): 100%
kinase still bound, per cent of control (CDK11B (human)): 100%
kinase still bound, per cent of control (EIF2AK2 (human)): 100%
kinase still bound, per cent of control (FLT3 (human)): 4.6%
kinase still bound, per cent of control (RIPK1 (human)): 9.4%
kinase still bound, per cent of control (HCK (human)): 100%
kinase still bound, per cent of control (SIK1 (human)): 100%
kinase still bound, per cent of control (STK32C (human)): 100%
kinase still bound, per cent of control (DCLK3 (human)): 0.35%
kinase still bound, per cent of control (NEK1 (human)): 100%
kinase still bound, per cent of control (MAP2K3 (human)): 100%
kinase still bound, per cent of control (PRKD3 (human)): 10%
kinase still bound, per cent of control (MAPK13 (human)): 100%
kinase still bound, per cent of control (EPHA1 (human)): 100%
kinase still bound, per cent of control (CHEK1 (human)): 7%
kinase still bound, per cent of control (PRKAA2 (human)): 100%
kinase still bound, per cent of control (CAMK2G (human)): 100%
kinase still bound, per cent of control [1]: 100%
kinase still bound, per cent of control (DAPK1 (human)): 22%
kinase still bound, per cent of control (ADCK4 (human)): 100%
kinase still bound, per cent of control (BMPR2 (human)): 8.6%
kinase still bound, per cent of control (STK3 (human)): 100%
kinase still bound, per cent of control (MUSK (human)): 100%
kinase still bound, per cent of control (TEC (human)): 6.6%
kinase still bound, per cent of control (MERTK (human)): 100%
kinase still bound, per cent of control (YES1 (human)): 100%
kinase still bound, per cent of control (BMPR1B (human)): 100%
kinase still bound, per cent of control (PHKG2 (human)): 3.5%
kinase still bound, per cent of control (AKT3 (human)): 100%
